# Paper PMC11860126, “X-Ray Irradiation Induces Oxidative Stress and Upregulates Intestinal Nrf2-Mrp2 Pathway, Leading to Decreased Intestinal Absorption of Valsartan” (Pharmaceutics, 2025)
# System: Caco-2 cells
# Assay: Caco-2 cell uptake assay of valsartan with Mrp2/P-gp inhibitors and irradiation
# Details: valsartan 10 μM, 5 Gy X-ray 24 h before
compound,measurement,setting,value
"CCCCC(=O)N(Cc1ccc(-c2ccccc2-c2nnn[nH]2)cc1)[C@H](C(=O)O)C(C)C [valsartan, Valsartan]","valsartan uptake in Caco-2 cells, IR group compared with control group","1 h, p < 0.05",significant reduction
same,"valsartan uptake in Caco-2 cells, IR group compared with control group",2 h,no significant difference
